GI50 and TGI data for 17 molecules are collected here from PubChem BioAssay (NCI).

Values joined by “and” are separate entries in the source; they are usually repeats but may differ in a detail not shown here. Equal entries are not always repeated.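 Interpolation was linear, between the two tested concentrations surrounding the appropriate level; five concentrations were tested over 48 hours in 96-well plates. GI50 marks 50% less growth. TGI: concentration producing complete growth inhibition.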

The first assay has as its system MALME-3M melanoma. The assay is described as follows: NCI anticancer screen, dose series, 48 h.
With `CCN(CC)CCCCNc1c2ccccc2[n+](C)c2c1[nH]c1ccccc12`, the GI50 was 0.217 µM and the TGI was 0.671 µM.
`COc1ccc(C(=O)c2cc(OC)c(OC)c(OC)c2)cc1OC(=O)CCl` gave a TGI above 100 µM.
`CN[C@@H](C)C(=O)N[C@H](C(=O)N1CCC[C@H]1C(=O)Nc1snnc1-c1ccccc1)C1CCCCC1`: the GI50 is 11.5 µM and the TGI was found to be 26.2 µM.
Take `c1ccc2[nH]c(-c3ccc(-c4nccc5c4[nH]c4ccccc45)cc3)nc2c1`: the GI50 is 1.85 µM and the TGI came to 3.61 µM.
In turn, `O=C(O)CNC(=O)c1ccc(-c2ccccc2)cc1` registered a TGI above 100 µM.
Take `COc1cnc2c(c1)C(=O)c1c-2n(CCCn2ccnc2)c(=O)c2cc(F)ccc12`: the GI50 was 0.193 µM and the TGI amounted to 0.619 µM.
As to `COc1ccc2cc(C(=O)/C=C/c3ccc(Cl)cc3Cl)ccc2c1`, the GI50 was 23.5 µM and the TGI was above 100 µM.
In the case of `CC(=O)OCC1OC(n2cnc(C(N)=S)c2N)C(OC(C)=O)C1OC(C)=O` (centres undefined), the TGI is above 100 µM.

For the next assay, the system named is NCI/ADR-RES ovarian. The assay is described as follows: NCI anticancer screen, dose series, 48 h.
For the molecule `COc1ccc(-c2cn(-c3cc(OC)c(OC)c(OC)c3)c(SCc3ccccc3)n2)cc1OC`, the GI50 was above 100 µM and the TGI was above 100 µM.
Take `COc1c(C)c2c(c(O)c1C/C=C(\C)CCC(=O)O)C(=O)OC2`: the GI50 is 0.514 µM and the TGI was above 100 µM.
Take `Cc1cc(O)c(C(C)C)cc1S(=O)(=O)O` (tested in a mixture with another compound): the GI50 is 0.658 µM and the TGI stood at 4.79 µM.
In turn, `COc1cc(C[C@H]2c3cc(OC)c(OC)cc3CCN2C)c(Oc2cc3c(cc2OC)-c2c(OC)c(OC)cc4c2[C@H](C3)N(C)CC4)cc1OC` yielded a TGI of 32.3 µM.
Molecule `COC(=O)C1(C)CCC(c2ccc(C)cc2)=C(CC(=O)O)C1` (centres undefined) returned a TGI above 100 µM.
Take `CCN(CC)CCCC(C)Nc1ccnc2cc(Oc3ccccc3)ccc12` (centres undefined): the GI50 is 14.3 µM and 38.4 µM; the TGI is 34.1 µM and > 100 µM.
For the molecule `C=C1CCC2C3(C)COC(c4ccc(N(C)C)cc4)OC3CCC2(C)C1C/C=C1/C(=O)OCC1O` (centres undefined), the GI50 is 3.83 µM and the TGI turned out to be 43.5 µM.
As to `COc1cc(OC(=O)c2ccccc2)cc2c1C(=O)C=CC2=O`, the TGI is above 88.6 µM.
Regarding `CC/C=C1/C(=O)C=C[C@@H]1C/C=C\CCCC(=O)OC`, the GI50 is 2.88 µM and the TGI was 14.5 µM.
`CCN(CC)CCCCNc1c2ccccc2[n+](C)c2c1[nH]c1ccccc12`: the GI50 was 48.8 µM and the TGI was above 100 µM.
On to `COc1ccc(C(=O)c2cc(OC)c(OC)c(OC)c2)cc1OC(=O)CCl`, for which the GI50 is below 0.0167 µM and the TGI is above 100 µM.
For the molecule `CN[C@@H](C)C(=O)N[C@H](C(=O)N1CCC[C@H]1C(=O)Nc1snnc1-c1ccccc1)C1CCCCC1`, the GI50 is 66.1 µM and the TGI is above 100 µM.
Turning to `c1ccc2[nH]c(-c3ccc(-c4nccc5c4[nH]c4ccccc45)cc3)nc2c1`, the GI50 is 3.5 µM and the TGI turned out to be 15.2 µM.
Regarding `O=C(O)CNC(=O)c1ccc(-c2ccccc2)cc1`, the TGI is above 100 µM.
Turning to `COc1cnc2c(c1)C(=O)c1c-2n(CCCn2ccnc2)c(=O)c2cc(F)ccc12`, the GI50 is 0.0193 µM and the TGI was above 100 µM.
Consider `COc1ccc2cc(C(=O)/C=C/c3ccc(Cl)cc3Cl)ccc2c1`, for which the GI50 was 23 µM and the TGI was above 100 µM.
On to `CC(=O)OCC1OC(n2cnc(C(N)=S)c2N)C(OC(C)=O)C1OC(C)=O` (centres undefined), for which the TGI is above 100 µM.

Another assay has as its system OVCAR-4 ovarian. The assay is described as follows: NCI anticancer screen, dose series, 48 h.
`COc1ccc(-c2cn(-c3cc(OC)c(OC)c(OC)c3)c(SCc3ccccc3)n2)cc1OC`: the GI50 was above 100 µM and the TGI was above 100 µM.
As to `COc1c(C)c2c(c(O)c1C/C=C(\C)CCC(=O)O)C(=O)OC2`, the GI50 was 0.776 µM and the TGI is above 100 µM.
For the molecule `Cc1cc(O)c(C(C)C)cc1S(=O)(=O)O` (tested in a mixture with another compound), the GI50 is 0.507 µM and the TGI came to 6.64 µM.
For `COc1cc(C[C@H]2c3cc(OC)c(OC)cc3CCN2C)c(Oc2cc3c(cc2OC)-c2c(OC)c(OC)cc4c2[C@H](C3)N(C)CC4)cc1OC`, the GI50 was 14.6 µM; the TGI is 23.9 µM and 28.6 µM.
`COC(=O)C1(C)CCC(c2ccc(C)cc2)=C(CC(=O)O)C1` (centres undefined) yielded a TGI above 100 µM.
In the case of `CCN(CC)CCCC(C)Nc1ccnc2cc(Oc3ccccc3)ccc12` (centres undefined), the GI50 was 9.78 µM and 16 µM; the TGI was 41.7 µM and 59.2 µM.
Take `C=C1CCC2C3(C)COC(c4ccc(N(C)C)cc4)OC3CCC2(C)C1C/C=C1/C(=O)OCC1O` (centres undefined): the GI50 is 2.5 µM and the TGI was 8.98 µM.
For the molecule `COc1cc(OC(=O)c2ccccc2)cc2c1C(=O)C=CC2=O`, the TGI is 12.3 µM.
Consider `CC/C=C1/C(=O)C=C[C@@H]1C/C=C\CCCC(=O)OC`, for which the GI50 is 5.24 µM and the TGI amounted to 18 µM.
The matching figures for `CCN(CC)CCCCNc1c2ccccc2[n+](C)c2c1[nH]c1ccccc12`: 0.345 µM and 2.57 µM.
The matching figures for `COc1ccc(C(=O)c2cc(OC)c(OC)c(OC)c2)cc1OC(=O)CCl`: 0.115 µM and above 100 µM.
For `CN[C@@H](C)C(=O)N[C@H](C(=O)N1CCC[C@H]1C(=O)Nc1snnc1-c1ccccc1)C1CCCCC1` the same measures were 5.58 µM and 99.6 µM.
Turning to `c1ccc2[nH]c(-c3ccc(-c4nccc5c4[nH]c4ccccc45)cc3)nc2c1`, the GI50 was 2.27 µM and the TGI was 7.75 µM.
In the case of `COc1cnc2c(c1)C(=O)c1c-2n(CCCn2ccnc2)c(=O)c2cc(F)ccc12`, the GI50 is 0.118 µM and the TGI is 1.63 µM.
In turn, `CC(=O)OCC1OC(n2cnc(C(N)=S)c2N)C(OC(C)=O)C1OC(C)=O` (centres undefined) yielded a TGI above 100 µM.
